Test results reported in patent US7816555B2, “Peroxycarboxylic acid compositions with reduced odor” (Ecolab Inc., priority 2003, dated 2010).

Experiment: pH of the mixtures
Format: physicochemical
Conditions: mixture at the stated moles of POAA, AA and AO-8
Method: Octyldimethylamine oxide was added to a peracid composition containing 15% peroxyacetic acid, 10% hydrogen peroxide, and about 40-45% acetic acid. The octyldimethylamine oxide was added at different levels, corresponding to differing molar ratios of peroxyacetic acid (POAA) to acetic acid (AA) to octyldimethylamine oxide (AO-8). The mixture was then compared for remaining odor. […] It was surprising that this reduction occurred even at pH too low for ion pair formation between the AO-8 and POAA, i.e. substantially below the 8.2 pKa of POAA.

- mixture results: pH: 7.7
Structure (SMILES): CCCCCCCC[N+](C)(C)[O-] [AO-8, octyldimethylamine oxide]
